Measurements as given in patent US20060247261A1 (priority 2002, published 2006).
Structures can show the parent of a compound that is named as a salt. Where two headings read alike, the source gives them in different places.

Molecular target: T1, human cannabinoid CB2 receptor (Homo sapiens, UniProt P34972)
T1 construct: expressed in transfected cells; host or cells: Saccharomyces cerevisiae strain MMY23 (expresses a chimeric Gpa1/human Galpha-i3 G-protein alpha subunit)
Experiment: Cannabinoid CB2 receptor agonist activity, yeast reporter assay
Format: cell-based
Conditions: for Emax: read-out: efficacy (Emax) at the cloned human cannabinoid CB2 receptor
Description: Yeast (Saccharomyces cerevisiae) cells expressing the human cannabinoid CB2 receptor were generated by integration of an expression cassette into the ura3 chromosomal locus of yeast strain MMY23. This cassette consisted of DNA sequence encoding the human CB2 receptor flanked by the yeast GPD promoter to the 5′ end of CB2 and a yeast transcriptional terminator sequence to the 3′ end of CB2. MMY23 expresses a yeast/mammalian chimeric G-protein alpha subunit in which the C-terminal 5 amino acids of Gpa1 are replaced with the C-terminal 5 amino acids of human Gαi3 (as described in Brown et al. (2000), Yeast 16:11-22).
Agonists were prepared as 10 mM stocks in DMSO. […] Agonist solutions in DMSO (1% final assay volume) were transferred into black, clear bottom, microtitre plates from NUNC (96- or 384-well). […] Fluorescence was plotted against compound concentration and iteratively curve fitted using a four parameter fit to generate a concentration effect value.

T1 sequence (P34972 whole entry): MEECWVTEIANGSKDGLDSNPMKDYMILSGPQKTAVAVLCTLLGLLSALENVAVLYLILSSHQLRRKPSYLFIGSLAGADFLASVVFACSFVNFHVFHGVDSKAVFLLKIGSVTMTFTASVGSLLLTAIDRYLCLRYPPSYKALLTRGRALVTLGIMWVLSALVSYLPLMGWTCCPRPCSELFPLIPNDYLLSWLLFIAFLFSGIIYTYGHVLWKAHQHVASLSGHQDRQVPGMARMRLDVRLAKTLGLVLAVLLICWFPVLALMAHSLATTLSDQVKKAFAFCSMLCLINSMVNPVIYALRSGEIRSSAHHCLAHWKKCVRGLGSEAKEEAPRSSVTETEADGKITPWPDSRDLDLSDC

| Structure (SMILES) | EC50 | Emax | EC50 (yeast (Saccharomyces cerevisiae) cells expressing human CB2, read-out: EC50 at the cloned human cannabinoid CB2 receptor) |
| --- | --- | --- | --- |
| CN(Cc1ccccc1)C(=O)c1cnc(Nc2ccc(Cl)cc2)nc1C(F)(F)F [Example 45, 2-(4-Chloro-phenylamino)-4-trifluoromethyl-pyrimidine-5-carboxylic acid N-benzyl-N-methyl-amide] | > 1000 nM | < 50% |  |
| N#Cc1ccc(CNC(=O)c2cnc(Nc3cccc(Br)c3)nc2C(F)(F)F)cc1 [Example 64, 2-(3-Bromo-phenylamino)-4-trifluoromethyl-pyrimidine-5-carboxylic acid N-(4-cyano-benzyl)amide] | > 1000 nM | < 50% |  |
| N#Cc1ccc(CNC(=O)c2cnc(Nc3ccc(Cl)c(Cl)c3)nc2C(F)(F)F)cc1 [Example 68, 2-(3,4-Dichloro-phenylamino)-4-trifluoromethyl-pyrimidine-5-carboxylic acid N-(4-cyano-benzyl)amide] | > 1000 nM | < 50% |  |
| O=C(O)c1cc(Cl)cc(Nc2ncc(C(=O)NCc3ccc(F)cc3)c(C(F)(F)F)n2)c1 [Example 113, 3-Chloro-5-[(4-fluoro-benzylcarbamoyl)-trifluoromethyl-pyrimidin-2-ylarnino]-benzoic acid] | > 1000 nM | < 50% |  |
| CN(Cc1ccccc1)C(=O)c1cnc(Nc2cc(Cl)cc(Cl)c2)nc1C(F)(F)F [Example 57, 2-(3,5-Dichloro-phenylamino)-4-trifluoromethyl-pyrimidine-5-carboxylic acid N-benzyl-N-methyl-amide] | > 1000 nM | < 50% |  |
| O=C(NCc1ccc(F)cc1)c1cnc(Nc2cccc(Cl)c2)nc1C(F)(F)F [Example 5, 2-(3-Chlorophenylamino)-4-trifluoromethylpyrimidine-5-carboxylic acid 4 fluorobenzyl-amide] |  |  | 20 to 1000 nM |
| CN(Cc1ccccc1)C(=O)c1cnc(Nc2ccccc2Cl)nc1C(F)(F)F [Example 96, 2-(2-Chloro-phenylamino)-4-trifluoromethyl-pyrimidine-5-carboxylic acid benzyl-methyl-amide] |  | > 50% |  |
| NC(=O)c1ccc(CNC(=O)c2cnc(Nc3cccc(Cl)c3)nc2C(F)(F)F)cc1 [Example 105, 2-(3-Chloro-phenylamino)-4-trifluoromethyl-pyrimidine-5-carboxylic acid 4-carbarnoyl-benzylamide] | > 1000 nM | < 50% |  |
| N#Cc1cccc(Nc2ncc(C(=O)NCc3ccccc3)c(C(F)(F)F)n2)c1 [Example 97, 2-(3-Cyano-phenylamino)-4-trifluoromethyl-pyrimidine-5-carboxylic acid benzylamide] | 20 to 1000 nM | > 50% |  |
| O=C(NCc1ccc(OC(F)(F)F)cc1)c1cnc(Nc2cccc(Cl)c2)nc1C(F)(F)F [Example 62, 2-(3-Chloro-phenylamino)-4-trifluoromethyl-pyrimidine-5-carboxylic acid N-(4-trifluoromethoxybenzyl)amide] | > 1000 nM | < 50% |  |
| COc1cccc(Nc2ncc(C(=O)NCc3ccncc3)c(C(F)(F)F)n2)c1 [Example 87] | 20 to 1000 nM | > 50% |  |
| O=C(NCc1ccc(F)cc1)c1cnc(Nc2ccc(C(F)(F)F)c(F)c2)nc1C(F)(F)F [Example 104, 2-(3-Fluoro-4-trifluoromethyl-phenylamino)-4-trifluoromethyl-pyrimidine-5-carboxylic acid 4-fluoro-benzylamide] | 20 to 1000 nM | > 50% |  |
| O=C(NCc1ccc(F)cc1)c1cnc(Nc2cc(Cl)ccc2Cl)nc1C(F)(F)F [Example 101, 2-(2,5-Dichloro-phenylamino)-4-trifluoromethyl-pyrimidine-5-carboxylic acid 4-fluoro-benzylamide] | 20 to 1000 nM | > 50% |  |
| O=C(NCc1ccncc1)c1cnc(Nc2ccc(Cl)cc2Cl)nc1C(F)(F)F [Example 17, 2-(2,4-Dichlorophenylamino)-4-trifluoromethylpyrimidine-5-carboxylic acid (pyridin-4-ylmethyl)amide] | 20 to 1000 nM | > 50% |  |
| Cc1cc(CNC(=O)c2cnc(Nc3cccc(Cl)c3)nc2C(F)(F)F)ccn1 [Example 28, 2-(3-Chloro-phenylamino)-4-trifluoromethyl-pyrimidine-5-carboxylic acid (2-methyl-pyridin-4-ylmethyl)-amide hydrochloride] | 20 to 1000 nM | > 50% |  |
| CN(Cc1ccccc1)C(=O)c1cnc(Nc2ccc(Cl)c(Cl)c2)nc1C(F)(F)F [Example 55, 2-(3,4-Dichloro-phenylamino)-4-trifluoromethyl-pyrimidine-5-carboxylic acid N-benzyl-N-methyl-amide] | > 1000 nM | < 50% |  |
| COc1ccc(Nc2ncc(C(=O)N(C)Cc3ccccc3)c(C(F)(F)F)n2)cc1 [Example 47, 2-(4-Methoxy-phenylamino)-4-trifluoromethyl-pyrimidine-5-carboxylic acid N-benzyl-N-methyl-amide] | > 1000 nM | < 50% |  |

| Structure (SMILES) | EC50 | Emax | EC50 (yeast (Saccharomyces cerevisiae) cells expressing human CB2, read-out: EC50 at the cloned human cannabinoid CB2 receptor) |
| --- | --- | --- | --- |
| O=C(NCc1ccccc1)c1cnc(Nc2ccc(Cl)c(Cl)c2)nc1C(F)(F)F [Example 9, 2-(3,4-Dichlorophenylamino)-4-trifluoromethylpyrimidine-5-carboxylic acid benzyl-amide] | 20 to 1000 nM | > 50% |  |
| O=C(NCc1ccccc1)c1cnc(Nc2cc(Cl)ccc2Cl)nc1C(F)(F)F [Example 56, 2-(2,5-Dichloro-phenylamino)-4-trifluoromethyl-pyrimidine-5-carboxylic acid N-benzylamide] | > 1000 nM | < 50% |  |
| O=C(NCc1ccncc1)c1cnc(Nc2cccc(Cl)c2)nc1C(F)(F)F [Example 2, 2-(3-Chlorophenylamino)-4-trifluoromethylpyrimidine-5-carboxylic acid (pyrdin-4-ylmethyl)amide] | 20 to 1000 nM | > 50% |  |
| O=C(NCc1ccccc1)c1cnc(Nc2cccc(Cl)c2)nc1C(F)(F)F [Example 1, 2-(3-Chlorophenylamino)-4-trifluoromethylpyrimidine-5-carboxylic acid benzyl-amide] | 20 to 1000 nM | > 50% |  |
| CC(C)(C)c1ccc(CNC(=O)c2cnc(Nc3cccc(Cl)c3)nc2C(F)(F)F)cc1 [Example 106, 2-(3-Chloro-phenylamino)-4-trifluoromethyl-pyrimidine-5-carboxylic acid 4-tert-butyl-benzylamide] | > 1000 nM | < 50% |  |
| O=C(NCc1ccccc1)c1cnc(Nc2cccc(Br)c2)nc1C(F)(F)F [Example 13, 2-(3-Bromophenylamino)-4-trifluoromethylpyrimidine-5-carboxylic acid benzyl-amide] | 20 to 1000 nM | > 50% |  |
| N#Cc1ccc(CNC(=O)c2cnc(Nc3cccc(Cl)c3)nc2C(F)(F)F)cc1 [Example 6, 2-(3-Chlorophenylamino)-4-trifluoromethylpyrimidine-5-carboxylic acid 4 cyanobenzyl-amide] | 20 to 1000 nM | > 50% |  |
| N#Cc1ccc(CNC(=O)c2cnc(Nc3cc(Cl)cc(Cl)c3)nc2C(F)(F)F)cc1 [Example 26, 2-(3,5-Dichlorophenylamino)-4-trifluoromethylpyrimidine-5-carboxylic acid 4-cyanobenzylamide] | 20 to 1000 nM | > 50% |  |
| O=C(NCc1ccnc(F)c1)c1cnc(Nc2ccc(Cl)c(Cl)c2)nc1C(F)(F)F [Example 92, 2-(3,4-Dichloro-phenylamino)-4-trifluoromethyl-pyrimidine-5-carboxylic acid (2-fluoro-pyridin-4-ylmethyl)-amide] | 20 to 1000 nM | > 50% |  |
| CN(Cc1ccccc1)C(=O)c1cnc(Nc2c(Cl)cccc2Cl)nc1C(F)(F)F [Example 10, 2-(2,6-Dichlorophenylamino)-4-trifluoromethylpyrimidine-5-carboxylic acid N-benzyl-N-methylamide] | 20 to 1000 nM | > 50% |  |
| CN(Cc1ccccc1)C(=O)c1cnc(Nc2ccc(C#N)cc2)nc1C(F)(F)F [Example 49, 2-(4-Cyano-phenylamino)-4-trifluoromethyl-pyrimidine-5-carboxylic acid N-benzyl-N-methyl-amide] | > 1000 nM | < 50% |  |
| COc1ccc(CNC(=O)c2cnc(Nc3cccc(Cl)c3)nc2C(F)(F)F)cc1 [Example 4, 2-(3-Chlorophenylamino)-4-trifluoromethylpyrimidine-5-carboxylic acid 4-methoxybenzyl-amide] | 20 to 1000 nM | > 50% |  |
| O=C(NCc1ccc(F)cc1)c1cnc(Nc2ccc(OC(F)(F)F)c(Cl)c2)nc1C(F)(F)F [Example 111, 2-(3-Chloro-4-trifluoromethoxy-phenylamino)-4-trifluoromethyl-pyrimidine-5-carboxylic acid 4-fluoro-benzylamide] | > 1000 nM | < 50% |  |
| O=C(O)Cc1cccc(Nc2ncc(C(=O)NCc3ccc(F)cc3)c(C(F)(F)F)n2)c1 [Example 112, {3-[(4-Fluoro-benzylcarbamoyl)-trifluoromethyl-pyrimidin-2-ylamino]-phenyl}-acetic acid] | > 1000 nM | < 50% |  |
| O=C(NCc1ccc(F)cc1)c1cnc(Nc2cc(Cl)ccc2F)nc1C(F)(F)F [Example 84, 2-(5-Chloro-2-fluoro-phenylamino)-4-trifluoromethyl-pyrimidine-5-carboxylic acid 4-fluoro-benzylamide] | 20 to 1000 nM | > 50% |  |
| O=C(NCc1cc(F)cc(F)c1)c1cnc(Nc2cccc(Cl)c2)nc1C(F)(F)F [Example 61, 2-(3-Chloro-phenylamino)-4-trifluoromethyl-pyrimidine-5-carboxylic acid N-(3,5-difluoro-benzyl)amide] | > 1000 nM | < 50% |  |
